Measured values taken from ChEMBL document CHEMBL3085706, “Scorpiand-like azamacrocycles prevent the chronic establishment of Trypanosoma cruzi in a murine model” (Eur J Med Chem, 2013).
Active and inactive are the calls of the source. No cut-off for these calls is given here.

How the values were obtained:
[1] = Inhibition of Escherichia coli Mn-SOD assessed as reduction of nitrobluetetrazolium measured for 10 mins by spectrophotometric analysis
[2] = tested on: Trypanosoma cruzi; test: Trypanocidal activity against epimastigote form of Trypanosoma cruzi IRHOD/CO/2008/SN3 assessed as cytoplasmic vacuolization and disintegration at IC25 after 96 hrs by transmission electron microscopic analysis; assay type: functional, organism-based
[3] = tested on: Trypanosoma cruzi; test: Inhibition of Fe-SOD in Trypanosoma cruzi IRHOD/CO/2008/SN3 epimastigotes assessed as reduction of nitrobluetetrazolium at 12.5 to 25 uM measured for 10 mins by spectrophotometric analysis relative to control
[4] = tested on: Trypanosoma cruzi; test: Trypanocidal activity against epimastigote form of Trypanosoma cruzi IRHOD/CO/2008/SN3 assessed as induction of ethanol production at IC25 after 96 hrs by NMR spectra analysis; assay type: functional, organism-based
[5] = tested on: Trypanosoma cruzi; test: Trypanocidal activity against bloodstream trypomastigote form of Trypanosoma cruzi IRHOD/CO/2008/SN3 infected in BALB/c mouse assessed as reduction of circulating parasite burden at 5 mg/kg, ip administered for 5 to 10 days measured 22 to 60 days post-infection by Neubauer hemocytometric analysis; assay type: functional, organism-based; design: dose 5 mg/kg
[6] = tested on: Trypanosoma cruzi; test: Trypanocidal activity against bloodstream trypomastigote form of Trypanosoma cruzi IRHOD/CO/2008/SN3 infected in BALB/c mouse assessed as reduction of anti-parasitic Ig-G level in serum at 5 mg/kg/day, ip administered for 5 days measured over 40 to 120 days post-infection by ELISA; assay type: functional, organism-based
[7] = tested on: Trypanosoma cruzi; test: Trypanocidal activity against extracellular epimastigote form of Trypanosoma cruzi IRHOD/CO/2008/SN3 after 72 hrs by Neubauer hemocytometric analysis; assay type: functional, organism-based; conditions: IRHOD/CO/2008/SN3, 72 h
[8] = tested on: Vero; test: Cytotoxicity against African green monkey Vero cells after 72 hrs by flow cytometric analysis; assay type: cell-based; conditions: Chlorocebus sabaeus
[9] = Selectivity index, ratio of IC50 for African green monkey Vero cells to IC50 for intracellular amastigote form of Trypanosoma cruzi IRHOD/CO/2008/SN3; assay type: toxicity, cell-based; conditions: read-out: Ratio IC50
[10] = Inhibition of Fe-SOD in Trypanosoma cruzi IRHOD/CO/2008/SN3 epimastigotes assessed as reduction of nitrobluetetrazolium measured for 10 mins by spectrophotometric analysis
[11] = tested on: Trypanosoma cruzi; test: Trypanocidal activity against epimastigote form of Trypanosoma cruzi IRHOD/CO/2008/SN3 assessed as inhibition of acetate excretion at IC25 after 96 hrs by NMR spectra analysis; assay type: functional, organism-based
[12] = tested on: Trypanosoma cruzi; test: Trypanocidal activity against trypomastigote form of Trypanosoma cruzi IRHOD/CO/2008/SN3 infected in African green monkey Vero cells assessed as inhibition of trypomastigotes released in culture medium at IC25 relative to control; assay type: functional
[13] = tested on: Trypanosoma cruzi; test: Trypanocidal activity against epimastigote form of Trypanosoma cruzi IRHOD/CO/2008/SN3 assessed as excessive dilation of kinetoplast at IC25 after 96 hrs by transmission electron microscopic analysis; assay type: functional, organism-based
[14] = tested on: Trypanosoma cruzi; test: Trypanocidal activity against epimastigote form of Trypanosoma cruzi IRHOD/CO/2008/SN3 assessed as loss of plasma membrane integrity at IC25 after 96 hrs by transmission electron microscopic analysis; assay type: functional, organism-based
[15] = tested on: Trypanosoma cruzi; test: (§1) Trypanocidal activity against amastigote form of Trypanosoma cruzi IRHOD/CO/2008/SN3 infected in African green monkey Vero cells assessed as inhibition of amastigotes load per cell at IC25 preincubated for 12 hrs followed by compound washout measured after 10 days by Giemsa staining-based microscopic analysis relative to control; assay type: functional
[16] = tested on: Trypanosoma cruzi; test: Trypanocidal activity against intracellular amastigote form of Trypanosoma cruzi IRHOD/CO/2008/SN3 infected in African green monkey Vero cells after 72 hrs by Giemsa staining assay; assay type: functional, organism-based; conditions: IRHOD/CO/2008/SN3, Vero
[17] = Selectivity index, ratio of IC50 for African green monkey Vero cells to IC50 for extracellular epimastigote form of Trypanosoma cruzi IRHOD/CO/2008/SN3; assay type: toxicity, cell-based; conditions: read-out: Ratio IC50
[18] = tested on: Trypanosoma cruzi; test: Trypanocidal activity against epimastigote form of Trypanosoma cruzi IRHOD/CO/2008/SN3 assessed as inhibition of lactate excretion at IC25 after 96 hrs by NMR spectra analysis; assay type: functional, organism-based
[19] = tested on: Trypanosoma cruzi; test: Trypanocidal activity against epimastigote form of Trypanosoma cruzi IRHOD/CO/2008/SN3 assessed as lysis of epimastigotes at IC25 after 96 hrs by transmission electron microscopic analysis; assay type: functional, organism-based
[20] = tested on: Trypanosoma cruzi; test: Trypanocidal activity against epimastigote form of Trypanosoma cruzi IRHOD/CO/2008/SN3 assessed as inhibition of alanine excretion at IC25 after 96 hrs by NMR spectra analysis; assay type: functional, organism-based
[21] = tested on: Trypanosoma cruzi; test: as §1, with “parasite infection rate” for “amastigotes load per cell”; assay type: functional
[22] = Selectivity index, ratio of IC50 for African green monkey Vero cells to IC50 for extracellular trypomastigote form of Trypanosoma cruzi IRHOD/CO/2008/SN3; assay type: toxicity, cell-based; conditions: read-out: Ratio IC50
[23] = tested on: Trypanosoma cruzi; test: Trypanocidal activity against extracellular trypomastigote form of Trypanosoma cruzi IRHOD/CO/2008/SN3 after 24 hrs by Neubauer hemocytometric analysis; assay type: functional, organism-based; conditions: IRHOD/CO/2008/SN3, 24 h
[24] = tested on: Trypanosoma cruzi; test: Trypanocidal activity against epimastigote form of Trypanosoma cruzi IRHOD/CO/2008/SN3 assessed as inhibition of succinate excretion at IC25 after 96 hrs by NMR spectra analysis; assay type: functional, organism-based
[25] = tested on: Mus musculus; test: Hepatotoxicity in BALB/c mouse infected with bloodstream trypomastigote form of Trypanosoma cruzi IRHOD/CO/2008/SN3 assessed as granuloma with lymphocytic infiltrate at 5 mg/kg/day, ip administered for 5 days measured 150 days post-infection by light microscopic analysis; assay type: toxicity, organism-based; design: route intraperitoneal; conditions: in vivo, 3600 h
[26] = tested on: Mus musculus; test: Hepatotoxicity in BALB/c mouse infected with bloodstream trypomastigote form of Trypanosoma cruzi IRHOD/CO/2008/SN3 assessed as centrilobular destruction of hepatic vein at 5 mg/kg/day, ip administered for 5 days measured 150 days post-infection by light microscopic analysis; assay type: toxicity, organism-based; design: route intraperitoneal; conditions: in vivo, 3600 h
[27] = tested on: Mus musculus; test: Hepatotoxicity in BALB/c mouse infected with bloodstream trypomastigote form of Trypanosoma cruzi IRHOD/CO/2008/SN3 assessed as lymphocytic infiltration in portal tracts at 5 mg/kg/day, ip administered for 5 days measured 150 days post-infection by light microscopic analysis; assay type: toxicity, organism-based; design: route intraperitoneal; conditions: in vivo, 3600 h
[28] = tested on: Mus musculus; test: Hepatotoxicity in BALB/c mouse infected with bloodstream trypomastigote form of Trypanosoma cruzi IRHOD/CO/2008/SN3 assessed as hepatic destruction in portal space at 5 mg/kg/day, ip administered for 5 days measured 150 days post-infection by light microscopic analysis; assay type: toxicity, organism-based; design: route intraperitoneal; conditions: in vivo, 3600 h
[29] = tested on: Mus musculus; test: Hepatotoxicity in BALB/c mouse infected with bloodstream trypomastigote form of Trypanosoma cruzi IRHOD/CO/2008/SN3 assessed as vessels with thickened walls at 5 mg/kg/day, ip administered for 5 days measured 150 days post-infection by light microscopic analysis; assay type: toxicity, organism-based; design: route intraperitoneal; conditions: in vivo
[30] = tested on: Mus musculus; test: Hepatotoxicity in BALB/c mouse infected with bloodstream trypomastigote form of Trypanosoma cruzi IRHOD/CO/2008/SN3 assessed as interstitial hemorrhage at 5 mg/kg/day, ip administered for 5 days measured 150 days post-infection by light microscopic analysis; assay type: toxicity, organism-based; design: route intraperitoneal; conditions: in vivo, 3600 h
[31] = tested on: Mus musculus; test: Hepatotoxicity in BALB/c mouse infected with bloodstream trypomastigote form of Trypanosoma cruzi IRHOD/CO/2008/SN3 assessed as delocalized hepatic destruction at 5 mg/kg/day, ip administered for 5 days measured 150 days post-infection by light microscopic analysis; assay type: toxicity, organism-based; design: route intraperitoneal; conditions: in vivo, 3600 h
[32] = tested on: Mus musculus; test: Hepatotoxicity in BALB/c mouse infected with bloodstream trypomastigote form of Trypanosoma cruzi IRHOD/CO/2008/SN3 assessed as presence of necrotic cells in portal space at 5 mg/kg/day, ip administered for 5 days measured 150 days post-infection by light microscopic analysis; assay type: toxicity, organism-based; design: route intraperitoneal; conditions: in vivo, 3600 h
[33] = tested on: Trypanosoma cruzi; test: Trypanocidal activity against epimastigote form of Trypanosoma cruzi IRHOD/CO/2008/SN3 assessed as disorganization of cytoplasm at IC25 after 96 hrs by transmission electron microscopic analysis; assay type: functional, organism-based
[34] = tested on: Trypanosoma cruzi; test: Trypanocidal activity against epimastigote form of Trypanosoma cruzi IRHOD/CO/2008/SN3 assessed as appearance of swollen mitochondria at IC25 after 96 hrs by transmission electron microscopic analysis; assay type: functional, organism-based

SMILES | IC50 [1] [µM] | inhibition [3] [%] | Activity [4] | Activity [5] | Activity [6] | IC50 [7] [µM] | IC50 [8] [µM] | selectivity ratio [9] | IC50 [10] [µM] | inhibition [11] | inhibition (INH) [12] [%] | inhibition (INH) [15] [%] | IC50 [16] [µM] | selectivity ratio [17] | inhibition [18] | inhibition [20] | inhibition (INH) [21] [%] | selectivity ratio [22] | IC50 [23] [µM] | inhibition [24] | further results
Br.NCCN1CCNCc2cccc(n2)CNCC1 | 111 | 100 | Active | Active | Active | 6.5 | 270 | 34.5 | 12.5 | Active | 58 | 46 | 7.8 | 41.4 | Active | Active | 73 | 16.5 | 16.3 | Active | Activity [2]: Active; Activity [13]: Active; Activity [14]: Active; Activity [19]: Active
O=C(Cn1ccnc1[N+](=O)[O-])NCc1ccccc1 [BENZNIDAZOLE] |  |  |  | Active | Active |  |  |  |  |  | 27 | 12 | 23 |  |  |  | 39 |  | 22.6 |  | Activity [25]: Toxic; Activity [26]: Non-toxic; Activity [27]: Non-toxic; Activity [28]: Toxic; Activity [29]: Non-toxic; Activity [30]: Non-toxic; Activity [31]: Toxic; Activity [32]: Toxic
Cl.c1ccc(CNCCN2CCNCc3cccc(n3)CNCC2)nc1 | 62.5 | 100 | Active | Active | Active | 9 | 366 | 36.4 | 8.2 | Active | 82 | 60 | 10 | 42.2 | Active | Active | 77 | 20.3 | 18 | Active | Activity [33]: Active; Activity [34]: Active
